Counter-ions that a name gives are not always drawn.
Legend:
rat duodenum = assay: spasmolytic activity, papaverine type (contracting agent barium chloride), technique of MAGNUS; assay type: cell-based; settings: for Spasmolytic activity, papaverine type, ratio of ED 50 values, reference (R) to compound (X): relative to papaverine hydrochloride; for IC50: Tyrode solution 38° C, concentration causing 50% inhibition of the contraction, compound tested (X), read-out: Spasmolytic activity, papaverine type, ED 50 (X)
Procedure: The spasmolytic activity was studied on the rat duodenum (1) or on the guinea pig ileum (2), kept alive in an aerated Tyrode solution heated to 38° C, in accordance with the technique of MAGNUS (Archiv. Ges. Physiol., 1905, 180, 1-71).
(1) The contracting agent used was barium chloride and the reference antagonistic agent was papaverine hydrochloride (R).

mice = assay: in vivo; settings: mice, intraperitoneal, mortality over 7 days
Procedure: (§1) The acute toxicity was evaluated by intraperitoneal administration to mice. The products were suspended in a dilute pseudo-solution of carboxymethyl-cellulose.
(§2) The mortality was checked over the course of the 7 days which followed the treatment.

guinea pig ileum = assay: spasmolytic activity, atropine type (contracting agent acetylcholine chloride), technique of MAGNUS; settings: Cavia porcellus, read-out: Spasmolytic activity, atropine type, ED 50 (X)
Description: (2) The contracting agent used was acetylcholine chloride and the reference antagonistic agent was atropine sulphate (R).
Again, the activity of the compounds tested (X) was compared with that of the reference agent chosen (R), by calculating the ratio of their ED 50 values.

in vivo = settings: mouse, in vivo, ip
Procedure: as §1, §2

Row | SMILES | Spasmolytic activity, papaverine type, ratio of ED 50 values, reference (R) to compound (X) (rat duodenum) | Acute toxicity in mice, intraperitoneal administration, LD 50 (mice) [mg/kg] | IC50 (rat duodenum) [µg/mL] | IC50 (guinea pig ileum) [µg/mL] | LD50 at 168 h (in vivo) [mg/kg]
1 | CC(C[N+]1(C)CCCC1)OC(=O)C(=C1CCCCC1)c1ccsc1.[I-] (stereo not shown) [Example 25, 2-Pyrrolidino-isopropyl cyclohexylidene-(thienyl-3)-acetate (mono-iodomethylate)] | 1 | 80 | – | – | –
2 | Cc1ccc(C(C(=O)OCCCN2CCCC2)c2ccccc2)s1 (stereo not shown) [Example 21, 3-Pyrrolidino-propyl (5-methyl-thienyl-2)-phenyl-acetate (oxalate)] | 2.16 | – | 2.55 | 0.1 | 100
3 | CCN(CC)CCCOC(=O)C(c1ccsc1C)C1CCCCC1 (stereo not shown) [Example 22, 3-Diethylaminopropyl (2-methyl-thienyl-3)-cyclohexyl-acetate hydrochloride] | 19.75 | – | 0.38 | 0.0115 | 80
4 | O=C(OCCN1CCCCC1)C(=C1CCCCC1)c1ccsc1 [Example 23, 2-Piperidino-ethyl cyclohexylidene-(thienyl-3)-acetate (hydrochloride)] | 1.46 | – | 2.4 | 0.39 | 80
5 | CCN(CC)CCCOC(=O)C(c1ccc(C)s1)C1CCCCC1 (stereo not shown) [Example 20, 3-Diethylaminopropyl (5-methyl-thienyl-2)-cyclohexyl-acetate (hydrochloride)] | 5.45 | – | 1.1 | 0.009 | 80
6 | O=C(OCCCN1CCCCC1)C(=C1CCCCC1)c1ccsc1 [Example 24, 3-Piperidino-propyl cyclohexylidene-(thienyl-3)-acetate hydrochloride] | 1.56 | – | 0.8 | 0.8 | 150

Reference: US4005095A, “Substituted thienyl-acetic acid esters” (Innothera, priority 1974, dated 1977)
